Data taken from patent publication US4235923A, “Esters of 3-substituted-2-(aminocarbonyl)oxiranecarboxylic acids as lipogenesis inhibitors” (Shell Oil Company, priority 1979, dated 1980).

test system: lipogenesis in swine adipose tissue; assay: inhibition of lipogenesis (incorporation of radioactive glucose carbon into lipid) in slices of swine adipose tissue; format: cell-based; conditions: 100 micrograms per milliliter, 37° C., 2 hours, glucose-U^14 C, insulin, 5% DMSO, triplicate
Text: The manner in which they cause this effect is not known with certainty; it is believed that they interfere with the synthesis of fatty acids in the tissues. Their effectiveness for this purpose has been ascertained by immersing samples of swine adipose tissue in a liquid medium containing radioactive glucose and the test chemical, for a period of time, then isolating the lipid from the treated tissue and determining the incorporation of the radioactive carbon into lipid by means of scintillation counting techniques. These tests were conducted in swine adipose tissue because in swine, the primary site of lipogensis--i.e., fatty acid synthesis--appears to be adipose tissue.
Described in more detail, the tests were conducted according to the following general procedure:
150 milligrams of slices of swine adipose tissue were incubated at 37° C. for 2 hours with shaking in 3 milliliters of Krebs-Ringer bicarbonate solution containing one-half the normal calcium ion concentration, 60 micromoles of glucose, 0.5 micro-Curie of glucose-U^14 C, and 300 microunits of insulin, and 5% dimethyl sulfoxide (DMSO). The test compounds were added as suspensions or solutions in DMSO and were present at a concentration of 100 micrograms per milliliter of the incubation mixture.
The incubation was terminated by addition of 0.25 milliliter of 1 N sulfuric acid. The resulting mixture was extracted with a total of 25 milliliters of chloroform: methanol (2:1 v/v). The extracts were washed according to Folch et al. (J. Biol. Chem., 226, 497-509, (1957)), air dried, and counted in a liquid scintillation counter with 15 milliliters of counting fluid (two parts toluene containing 0.4% w/v New England Nuclear Omnifluor: 1 part Triton X-100). The tests were conducted in triplicate and were accompanied by control tests in which all ingredients,proportions and conditions were the same except that no test compound was included. From the data obtained were calculated the percent inhibition of lipid synthesis by the test compound in each case. The data obtained from the tests are set out in Table 1, as the percent inhibition of lipogenesis compared to the results obtained in the control tests wherein only the test compound was omitted.

Compound | Percent Inhibition (of lipogenesis compared to control) [%]
CCCCCCC1OC1(C(N)=O)C(=O)OCC (stereo not drawn) [Compound 2, Ethyl 2-(aminocarbonyl)-3-hexyloxiranecarboxylate cis] | 83

same assay, conditions: Sus scrofa, 2 h, 100 micrograms per milliliter, 37° C., glucose-U^14 C, insulin, 5% DMSO, triplicate, read-out: Percent Inhibition (of lipogenesis compared to control)

Compound | inhibition at 100 µg/mL [%]
CCCCCCC1OC1(C(N)=O)C(=O)OCC (stereo not drawn) [Compound 1, Ethyl 2-(aminocarbonyl)-3-hexyloxiranecarboxylate trans] | 88
CCOC(=O)C1(C(N)=O)OC1C (stereo not shown) [Compound 3, Ethyl 2-(aminocarbonyl)-3-methyloxiranecarboxylate] | 18
CCOC(=O)C1(C(N)=O)OC1C1CCCCC1 (stereo not shown) [Compound 4, Ethyl 2-(Aminocarbonyl)-3-cyclohexyloxiranecarboxylate] | 75
CCOC(=O)C1(C(N)=O)OC1c1ccccc1 (stereo not shown) [Compound 5, Ethyl 2-(aminocarbonyl)-3-phenyloxiranecarboxylate] | 85
CCOC(=O)C1(C(=O)NC)OC1c1ccccc1 (stereo not shown) [Compound 6] | 27
CC(C)OC(=O)C1(C(N)=O)OC1c1ccccc1 (stereo not shown) [Compound 7, 1-Methylethyl 2-(aminocarbonyl)-3-phenyloxiranecarboxylate] | 48
COC(=O)C1(C(N)=O)OC1c1ccccc1 (stereo not shown) [Compound 8, Methyl 2-(aminocarbonyl)-3-phenyloxiranecarboxylate] | 47
CCOC(=O)C1(C(N)=O)OC1c1ccc(Cl)cc1 (stereo not shown) [Compound 9] | 65
CCOC(=O)C1(C(N)=O)OC1c1ccc(C)cc1 (stereo not shown) [Compound 10] | 37
CCOC(=O)C1(C(N)=O)OC1c1ccc(OC)c(OC)c1 (stereo not shown) [Compound 11] | 33
CCOC(=O)C1(C(N)=O)OC1c1cccc([N+](=O)[O-])c1 (stereo not shown) [Compound 12] | 76
CCOC(=O)C1(C(N)=O)OC1c1ccc(Cl)c(Cl)c1 (stereo not shown) [Compound 13] | 87
CCOC(=O)C1(C(N)=O)OC1c1ccc(OC)cc1 (stereo not shown) [Compound 14] | 55
CCOC(=O)C1(C(N)=O)OC1c1ccc([N+](=O)[O-])cc1 (stereo not shown) [Compound 15] | 37
CCOC(=O)C1(C(N)=O)OC1C(=O)c1ccccc1 (stereo not shown) [Compound 16, Ethyl 2-(aminocarbonyl)-3-benzoyloxiranecarboxylate] | 74
